The values that follow come from US4435417A, “Antiinflammatory 3H-naphtho[1,2-d]imidazoles” (Gruppo Lepetit S.p.A., priority 1982, dated 1984).

One data set can be described thus: in vivo. The conditions noted are these: mouse, po. The protocol:
The toxicities were determined according to Lichtfield and Wilcoxon, Journ. Pharm.

Data set [1] has as its system carrageenin-induced edema in the rat paw. Kind of data set: Carrageenin-induced edema of the rat paw (Winter et al.). The data set is classed as in vivo. The conditions noted are these: po, read-out: Percent inhibition of the carrageenin-induced edema; for inhibition in vivo at 50 mg/kg: 50 mg/kg os; for inhibition in vivo at 100 mg/kg: 100 mg/kg os; for inhibition in vivo at 20 mg/kg: 20 mg/kg os; for inhibition in vivo at 200 mg/kg: 200 mg/kg os. (Carrageenan injected into the paw causes an acute inflammation.)

Data set [2] has as its system adjuvant induced arthritis in rats. Kind of data set: Adjuvant induced arthritis test in rats (Newbold). The data set is classed as in vivo, rat. Particulars: rats p.o. On the procedure: In still another some of the compounds were tested in the adjuvant induced arthritis test in rats.
This test which was performed as described by B. B. Newbold in Bri. Journ. Pharmacol., 21, 127, (1963), is absolutely meaningful, because adjuvant arthritis is one of the best pharmacological tool with which a pharmacologist can investigate compounds as to their possible antiinflammatory activity, owing to the fact that this experimental model of chronic inflammation looks closer like to the conditions of rheumatoid arthritis of the human pathology (see Pearson, C. M., Arthritis and allied conditions, page 119, Lea and Febiger Publ. 1967 and Pearson C. M., J. Chronic Diseases, 16, 863 (1963).
. The measure of effectiveness of the compounds in this test is given by their ability in reducing the volume of the hind paws of the rats.

The test system of data set [3] is granuloma formed on a cotton pellet implanted subcutaneously in rats. As to the kind of experiment: Cotton pellet granuloma test in rats (Meier et al.). The conditions noted are these: Rattus norvegicus, po, read-out: Percent inhibition of the granuloma pellet.

What is called LD50 is the dose expected to kill half of the subjects tested. Lower therefore signals greater toxicity.

In the data set “in vivo”, `COc1ccc(-c2nc3c4ccccc4ccc3n2C)cc1` [Example 3, 2-(4-methoxyphenyl)-3-methyl-3H-naphtho[1,2-d]imidazole] yielded a 50% lethal dose (LD50) of around 1000 mg/kg. Further, in data set [1], the inhibition in vivo at 50 mg/kg was 34%. Besides, the inhibition in vivo at 100 mg/kg in data set [1] is 41%; in data set [3] it was 40%. In addition, in data set [2] (200 mg/kg), the “% Reduction of the volume of the hind paws over the control” value (“% Reduction” for short) is recorded as 33%.
Turning to `CN(C)c1ccc(-c2nc3c4ccccc4ccc3n2C)cc1` [Example 4, N,N-dimethyl-4-(3-methyl-3H-naphtho[1,2-d]imidazol-2-yl) benzenamine], in the data set “in vivo”, the LD50 is 500 mg/kg. Besides, in data set [1], the inhibition in vivo at 20 mg/kg came out at 32%, the inhibition in vivo at 50 mg/kg was found to be 46% and the inhibition in vivo at 100 mg/kg is 54%. For the same compound, the inhibition in vivo at 100 mg/kg in data set [3] was found to be 24%.
Turning to `COc1ccc(-c2nc3c4ccccc4ccc3n2C(C)C)cc1` [Example 9, 3-(1-methylethyl)-2-(4-methoxyphenyl)-3H-naphth[1,2-d]imidazole], in data set [1], the inhibition in vivo at 50 mg/kg amounted to 32%, the inhibition in vivo at 100 mg/kg was 45% and the inhibition in vivo at 200 mg/kg came out at 48%. Moreover, the “% Reduction” value in data set [2] (200 mg/kg) is 53%. Further, in data set [3], the inhibition in vivo at 200 mg/kg is 45%.
Take `CCOc1ccc(-c2nc3c4ccccc4ccc3n2C)cc1` [Example 2, 3-methyl-2-(4-ethoxyphenyl)-3H-naphtho[1,2-d]imidazole]: the LD50 in “in vivo” was above 1000 mg/kg. Besides, in data set [1], the inhibition in vivo at 50 mg/kg stood at 21%, the inhibition in vivo at 100 mg/kg worked out at 37% and the inhibition in vivo at 200 mg/kg amounted to 45%. The inhibition in vivo at 200 mg/kg in data set [3] is 40%.
Turning to `CNc1ccc(-c2nc3c4ccccc4ccc3n2C)cc1` [Example 7, N-methyl-4-(3-methyl-3H-naphtho[1,2-d]imidazol-2-yl)benzenamine], the LD50 in the data set “in vivo” is 500 mg/kg. Also, in data set [1], the inhibition in vivo at 20 mg/kg stood at 29%, the inhibition in vivo at 50 mg/kg is 37% and the inhibition in vivo at 100 mg/kg came out at 47%. Moreover, the inhibition in vivo at 100 mg/kg in data set [3] was determined as 33%.
On to `Cn1c(-c2ccccc2)nc2c3ccccc3ccc21` [Example 1, 3-methyl-2-phenyl-3H-naphtho[1,2-d]imidazole], for which, in “in vivo”, the median lethal dose (LD50) came out at 1000 mg/kg. In addition, in data set [1], the inhibition in vivo at 50 mg/kg was 24%, the inhibition in vivo at 100 mg/kg came to 37% and the inhibition in vivo at 200 mg/kg came to 42%. Moreover, the inhibition in vivo at 200 mg/kg in data set [3] stood at 24%.
With `Cc1cc(-c2nc3c4ccccc4ccc3n2C)ccc1N(C)C` [Example 5, 4-(3-methyl-3H-naphtho[1,2-d]imidazol-2-yl)-2,N,N-trimethylbenzenamine], in the data set “in vivo”, the LD50 came out at 500 mg/kg. Besides, in data set [1], the inhibition in vivo at 20 mg/kg was found to be 35%, the inhibition in vivo at 50 mg/kg worked out at 50% and the inhibition in vivo at 100 mg/kg was determined as 64%. Besides, the “% Reduction” value in data set [2] (100 mg/kg) was 42%. Besides, the inhibition in vivo at 100 mg/kg in data set [3] turned out to be 38%.
With `CCn1c(-c2ccc(OC)cc2)nc2c3ccccc3ccc21` [Example 15, 3-ethyl-2-(4-methoxyphenyl)-3H-naphtho[1,2-d]imidazole], the LD50 in the data set “in vivo” is above 1000 mg/kg. Besides, in data set [1], the inhibition in vivo at 20 mg/kg amounted to 31%, the inhibition in vivo at 50 mg/kg worked out at 45%, the inhibition in vivo at 100 mg/kg was 49% and the inhibition in vivo at 200 mg/kg came out at 52%. Besides, the inhibition in vivo at 200 mg/kg in data set [3] is 31%.
